US10231954B2, “Neurodegenerative therapies” (LYTIX BIOPHARMA AS, priority 2014, dated 2019)

Experiments:
Format in all cases: biochemical
[1] = biological target: MPSK1 (Homo sapiens, UniProt O75716); experiment: Kinase profiling MPSK1; settings: 100 micromolar inhibitor concentration, 100 is no change; for remaining activity at 100 µM: read-out: residual kinase activity, MPSK1
From the text: (§1) Any value less that 25 is considered to be highly significant inhibition.

[2] = biological target: PAK6 (Homo sapiens, UniProt Q9NQU5); experiment: Kinase profiling PAK6; settings: 100 micromolar inhibitor concentration, 100 is no change; for remaining activity at 100 µM: read-out: residual kinase activity, PAK6
From the text: as §1

[3] = biological target: T1, TAO1 (Homo sapiens, UniProt Q7L7X3); experiment: Kinase profiling TAO1; settings: 100 micromolar inhibitor concentration, 100 is no change; for remaining activity at 100 µM: read-out: residual kinase activity, TAO1
T1 sequence (Q7L7X3 1-1001): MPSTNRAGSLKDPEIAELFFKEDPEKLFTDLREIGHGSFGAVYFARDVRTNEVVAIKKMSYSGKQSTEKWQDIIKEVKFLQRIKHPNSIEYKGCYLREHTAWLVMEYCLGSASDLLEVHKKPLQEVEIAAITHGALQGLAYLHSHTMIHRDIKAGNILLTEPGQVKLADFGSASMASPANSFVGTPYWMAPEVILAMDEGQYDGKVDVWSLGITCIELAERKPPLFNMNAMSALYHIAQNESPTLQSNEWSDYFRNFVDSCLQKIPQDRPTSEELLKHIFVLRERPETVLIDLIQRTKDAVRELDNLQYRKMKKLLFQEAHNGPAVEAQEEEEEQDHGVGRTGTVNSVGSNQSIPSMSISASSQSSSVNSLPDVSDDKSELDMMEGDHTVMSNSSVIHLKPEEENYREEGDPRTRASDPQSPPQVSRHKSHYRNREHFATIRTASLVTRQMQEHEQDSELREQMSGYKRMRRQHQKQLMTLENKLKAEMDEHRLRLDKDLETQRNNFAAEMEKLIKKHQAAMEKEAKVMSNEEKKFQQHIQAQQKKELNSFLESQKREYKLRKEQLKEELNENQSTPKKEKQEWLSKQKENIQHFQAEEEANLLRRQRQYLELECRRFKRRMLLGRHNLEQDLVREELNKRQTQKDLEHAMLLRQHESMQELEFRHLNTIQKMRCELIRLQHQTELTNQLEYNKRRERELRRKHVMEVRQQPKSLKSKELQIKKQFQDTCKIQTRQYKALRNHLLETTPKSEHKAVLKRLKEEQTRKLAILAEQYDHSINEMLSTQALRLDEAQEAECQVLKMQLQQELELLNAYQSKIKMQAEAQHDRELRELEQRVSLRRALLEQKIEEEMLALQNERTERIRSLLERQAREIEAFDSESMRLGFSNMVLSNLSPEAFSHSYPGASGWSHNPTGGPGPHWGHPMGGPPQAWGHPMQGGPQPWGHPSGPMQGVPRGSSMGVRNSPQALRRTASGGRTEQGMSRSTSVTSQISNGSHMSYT
From the text: as §1

[4] = biological target: CDK2-Cyclin A (Homo sapiens, UniProt P24941); experiment: Kinase profiling CDK2-Cyclin A; settings: 100 micromolar inhibitor concentration, 100 is no change; for remaining activity at 100 µM: read-out: residual kinase activity, CDK2-Cyclin A
From the text: as §1

[5] = biological target: TTBK2 (Homo sapiens, UniProt Q6IQ55); experiment: Kinase profiling TTBK2; settings: 100 micromolar inhibitor concentration, 100 is no change; for remaining activity at 100 µM: read-out: residual kinase activity, TTBK2
From the text: as §1

[6] = biological target: WNK1 (Homo sapiens, UniProt Q9H4A3); experiment: Kinase profiling WNK1; settings: 100 micromolar inhibitor concentration, 100 is no change; for remaining activity at 100 µM: read-out: residual kinase activity, WNK1
From the text: as §1

[7] = biological target: T2, DDR2 (Homo sapiens, UniProt Q16832); experiment: Kinase profiling DDR2; settings: 100 micromolar inhibitor concentration, 100 is no change; for remaining activity at 100 µM: read-out: residual kinase activity, DDR2
T2 sequence (Q16832 22-855): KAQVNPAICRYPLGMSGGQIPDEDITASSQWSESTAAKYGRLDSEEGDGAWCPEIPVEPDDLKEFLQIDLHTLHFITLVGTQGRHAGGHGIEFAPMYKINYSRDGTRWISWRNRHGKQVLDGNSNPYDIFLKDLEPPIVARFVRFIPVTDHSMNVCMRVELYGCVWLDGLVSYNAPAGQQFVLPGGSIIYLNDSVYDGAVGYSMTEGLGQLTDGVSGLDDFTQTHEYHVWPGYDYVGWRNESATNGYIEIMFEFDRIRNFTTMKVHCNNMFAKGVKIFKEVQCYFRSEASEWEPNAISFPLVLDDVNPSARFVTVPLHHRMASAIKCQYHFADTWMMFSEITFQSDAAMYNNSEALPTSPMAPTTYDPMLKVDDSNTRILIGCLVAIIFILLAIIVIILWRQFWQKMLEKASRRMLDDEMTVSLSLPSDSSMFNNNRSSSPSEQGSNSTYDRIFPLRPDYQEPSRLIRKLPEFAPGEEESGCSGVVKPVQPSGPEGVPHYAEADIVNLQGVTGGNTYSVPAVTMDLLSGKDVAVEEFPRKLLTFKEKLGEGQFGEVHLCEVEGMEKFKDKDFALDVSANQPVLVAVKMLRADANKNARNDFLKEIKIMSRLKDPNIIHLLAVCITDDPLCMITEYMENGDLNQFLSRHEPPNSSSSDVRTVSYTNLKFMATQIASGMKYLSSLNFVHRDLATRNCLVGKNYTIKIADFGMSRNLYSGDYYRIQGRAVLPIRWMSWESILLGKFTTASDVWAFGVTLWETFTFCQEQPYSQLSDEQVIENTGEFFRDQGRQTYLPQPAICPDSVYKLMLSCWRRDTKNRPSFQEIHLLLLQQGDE
From the text: as §1

[8] = biological target: CDK9-Cyclin T1 (Homo sapiens, UniProt P50750); experiment: Kinase profiling CDK9-Cyclin T1; settings: 100 micromolar inhibitor concentration, 100 is no change; for remaining activity at 100 µM: read-out: residual kinase activity, CDK9-Cyclin T1
From the text: as §1

[9] = biological target: TESK1 (Homo sapiens, UniProt Q15569); experiment: Kinase profiling TESK1; settings: 100 micromolar inhibitor concentration, 100 is no change; for remaining activity at 100 µM: read-out: residual kinase activity, TESK1
From the text: as §1

[10] = biological target: T3, CHK1 (Homo sapiens, UniProt O14757); experiment: Kinase profiling CHK1; settings: 100 micromolar inhibitor concentration, 100 is no change; for remaining activity at 100 µM: read-out: residual kinase activity, CHK1
T3 sequence (O14757 1-476): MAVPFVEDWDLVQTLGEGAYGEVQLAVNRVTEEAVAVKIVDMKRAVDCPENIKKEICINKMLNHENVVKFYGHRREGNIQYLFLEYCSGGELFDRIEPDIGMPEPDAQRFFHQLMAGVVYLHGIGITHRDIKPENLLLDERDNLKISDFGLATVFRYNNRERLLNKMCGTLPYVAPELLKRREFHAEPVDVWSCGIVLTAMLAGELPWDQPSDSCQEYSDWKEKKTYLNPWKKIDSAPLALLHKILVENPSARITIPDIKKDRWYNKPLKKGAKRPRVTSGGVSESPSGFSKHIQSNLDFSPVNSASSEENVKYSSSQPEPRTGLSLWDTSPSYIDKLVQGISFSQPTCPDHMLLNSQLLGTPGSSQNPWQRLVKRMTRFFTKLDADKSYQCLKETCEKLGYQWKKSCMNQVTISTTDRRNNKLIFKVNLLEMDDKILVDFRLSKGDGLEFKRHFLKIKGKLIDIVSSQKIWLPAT
From the text: as §1

Sequence of MPSK1 (O75716 whole entry, species assumed): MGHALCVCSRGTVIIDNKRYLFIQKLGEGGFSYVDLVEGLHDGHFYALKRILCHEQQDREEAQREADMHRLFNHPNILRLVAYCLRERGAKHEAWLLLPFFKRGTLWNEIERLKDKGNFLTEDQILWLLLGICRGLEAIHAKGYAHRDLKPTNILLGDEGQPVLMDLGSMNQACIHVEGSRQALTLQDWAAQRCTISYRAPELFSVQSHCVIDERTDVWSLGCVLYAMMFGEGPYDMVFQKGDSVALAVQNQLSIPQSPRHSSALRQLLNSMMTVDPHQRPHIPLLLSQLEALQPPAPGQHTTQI
Sequence of PAK6 (Q9NQU5 whole entry, species assumed): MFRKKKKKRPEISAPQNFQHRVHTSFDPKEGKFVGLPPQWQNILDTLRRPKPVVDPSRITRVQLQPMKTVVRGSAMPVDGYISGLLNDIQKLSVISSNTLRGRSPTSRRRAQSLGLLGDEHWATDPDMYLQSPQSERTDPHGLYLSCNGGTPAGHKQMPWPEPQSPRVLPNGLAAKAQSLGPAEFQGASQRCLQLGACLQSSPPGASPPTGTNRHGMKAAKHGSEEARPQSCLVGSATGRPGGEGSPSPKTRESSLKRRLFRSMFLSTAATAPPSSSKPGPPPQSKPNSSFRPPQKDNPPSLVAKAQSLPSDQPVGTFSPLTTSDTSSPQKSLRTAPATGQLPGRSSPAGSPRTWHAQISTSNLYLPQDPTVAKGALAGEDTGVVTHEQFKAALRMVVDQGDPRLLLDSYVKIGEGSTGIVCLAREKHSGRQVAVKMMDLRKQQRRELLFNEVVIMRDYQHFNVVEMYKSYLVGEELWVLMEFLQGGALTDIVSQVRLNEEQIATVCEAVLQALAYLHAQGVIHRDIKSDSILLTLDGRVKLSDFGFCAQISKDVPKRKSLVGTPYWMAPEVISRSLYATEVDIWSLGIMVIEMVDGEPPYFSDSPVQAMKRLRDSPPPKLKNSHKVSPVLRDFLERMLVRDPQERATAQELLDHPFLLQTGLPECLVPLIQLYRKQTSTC
Sequence of WNK1 (Q9H4A3 whole entry, species assumed): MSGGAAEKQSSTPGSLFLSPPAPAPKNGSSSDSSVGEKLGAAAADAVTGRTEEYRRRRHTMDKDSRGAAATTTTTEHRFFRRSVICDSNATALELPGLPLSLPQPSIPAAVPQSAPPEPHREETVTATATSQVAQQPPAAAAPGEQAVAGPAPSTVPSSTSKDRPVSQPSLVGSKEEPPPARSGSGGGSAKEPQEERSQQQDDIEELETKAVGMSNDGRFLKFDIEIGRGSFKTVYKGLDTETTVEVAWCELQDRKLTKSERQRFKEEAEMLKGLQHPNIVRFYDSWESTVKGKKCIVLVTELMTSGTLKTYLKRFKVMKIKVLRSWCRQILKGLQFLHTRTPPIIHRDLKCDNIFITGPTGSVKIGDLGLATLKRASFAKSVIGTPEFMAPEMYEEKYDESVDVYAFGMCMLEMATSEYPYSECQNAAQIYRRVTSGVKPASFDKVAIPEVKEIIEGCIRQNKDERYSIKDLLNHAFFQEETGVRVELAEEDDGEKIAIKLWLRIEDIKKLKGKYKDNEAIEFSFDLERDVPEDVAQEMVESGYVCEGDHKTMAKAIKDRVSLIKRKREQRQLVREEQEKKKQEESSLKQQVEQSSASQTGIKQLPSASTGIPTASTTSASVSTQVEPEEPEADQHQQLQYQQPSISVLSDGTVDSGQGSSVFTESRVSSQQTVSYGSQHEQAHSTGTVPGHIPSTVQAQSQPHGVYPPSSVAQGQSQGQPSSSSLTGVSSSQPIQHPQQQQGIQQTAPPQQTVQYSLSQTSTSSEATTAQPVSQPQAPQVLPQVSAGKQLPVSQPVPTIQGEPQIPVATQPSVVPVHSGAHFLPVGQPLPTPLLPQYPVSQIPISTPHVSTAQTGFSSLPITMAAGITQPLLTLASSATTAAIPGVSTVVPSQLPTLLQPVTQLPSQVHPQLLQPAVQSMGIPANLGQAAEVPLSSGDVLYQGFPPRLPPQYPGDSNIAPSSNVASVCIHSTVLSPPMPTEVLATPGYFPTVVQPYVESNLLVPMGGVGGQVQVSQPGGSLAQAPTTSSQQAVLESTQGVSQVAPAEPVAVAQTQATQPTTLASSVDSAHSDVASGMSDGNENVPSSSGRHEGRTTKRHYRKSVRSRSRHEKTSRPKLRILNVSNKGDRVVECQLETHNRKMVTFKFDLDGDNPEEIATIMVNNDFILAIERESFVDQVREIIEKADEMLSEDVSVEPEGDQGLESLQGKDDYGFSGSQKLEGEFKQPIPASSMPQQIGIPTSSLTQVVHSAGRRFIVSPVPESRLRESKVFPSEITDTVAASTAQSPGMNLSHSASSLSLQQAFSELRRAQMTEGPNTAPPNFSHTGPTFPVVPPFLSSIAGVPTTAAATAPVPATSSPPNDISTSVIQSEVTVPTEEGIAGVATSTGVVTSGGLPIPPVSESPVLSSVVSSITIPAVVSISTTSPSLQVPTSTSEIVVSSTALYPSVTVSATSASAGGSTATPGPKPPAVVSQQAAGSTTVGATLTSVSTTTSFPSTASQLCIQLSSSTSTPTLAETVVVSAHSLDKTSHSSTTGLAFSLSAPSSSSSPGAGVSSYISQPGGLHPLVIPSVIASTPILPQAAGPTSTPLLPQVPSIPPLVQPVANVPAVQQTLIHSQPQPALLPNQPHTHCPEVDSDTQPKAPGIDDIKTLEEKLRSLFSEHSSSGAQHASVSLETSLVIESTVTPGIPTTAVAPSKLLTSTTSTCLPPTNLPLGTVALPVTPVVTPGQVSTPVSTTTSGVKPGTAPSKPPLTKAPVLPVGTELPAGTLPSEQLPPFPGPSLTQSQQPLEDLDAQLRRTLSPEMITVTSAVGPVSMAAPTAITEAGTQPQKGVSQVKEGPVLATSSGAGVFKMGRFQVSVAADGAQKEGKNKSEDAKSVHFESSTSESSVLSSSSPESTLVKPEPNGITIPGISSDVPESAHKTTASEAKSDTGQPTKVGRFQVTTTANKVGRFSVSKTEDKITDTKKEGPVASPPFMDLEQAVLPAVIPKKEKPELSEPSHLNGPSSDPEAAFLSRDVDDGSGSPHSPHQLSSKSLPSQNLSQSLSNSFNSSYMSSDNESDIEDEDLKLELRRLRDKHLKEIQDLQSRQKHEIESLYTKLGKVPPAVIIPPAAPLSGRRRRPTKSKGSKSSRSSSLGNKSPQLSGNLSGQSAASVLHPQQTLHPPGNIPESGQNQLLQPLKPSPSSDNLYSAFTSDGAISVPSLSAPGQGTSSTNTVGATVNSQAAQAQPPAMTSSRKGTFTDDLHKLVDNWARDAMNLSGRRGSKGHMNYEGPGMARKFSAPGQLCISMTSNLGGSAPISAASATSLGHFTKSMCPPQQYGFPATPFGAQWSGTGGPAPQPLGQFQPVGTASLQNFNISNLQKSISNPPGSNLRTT
Sequence of TESK1 (Q15569 whole entry, species assumed): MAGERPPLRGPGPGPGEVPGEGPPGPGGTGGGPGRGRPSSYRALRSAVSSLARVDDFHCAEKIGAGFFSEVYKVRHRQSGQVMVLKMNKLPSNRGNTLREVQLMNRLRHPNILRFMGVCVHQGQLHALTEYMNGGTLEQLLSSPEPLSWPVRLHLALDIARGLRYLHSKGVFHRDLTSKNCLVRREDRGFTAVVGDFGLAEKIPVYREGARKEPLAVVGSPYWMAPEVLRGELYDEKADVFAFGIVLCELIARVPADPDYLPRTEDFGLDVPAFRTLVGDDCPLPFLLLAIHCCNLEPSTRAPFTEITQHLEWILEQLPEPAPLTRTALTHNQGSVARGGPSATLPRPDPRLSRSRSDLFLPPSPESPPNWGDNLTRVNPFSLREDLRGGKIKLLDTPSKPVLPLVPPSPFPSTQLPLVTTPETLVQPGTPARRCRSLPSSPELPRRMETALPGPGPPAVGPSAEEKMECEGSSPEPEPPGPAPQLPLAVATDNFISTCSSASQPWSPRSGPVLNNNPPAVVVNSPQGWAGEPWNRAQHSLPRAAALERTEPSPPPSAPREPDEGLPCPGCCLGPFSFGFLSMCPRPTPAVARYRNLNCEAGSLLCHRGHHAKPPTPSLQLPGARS
Sequence of CDK9-Cyclin T1 (P50750 whole entry): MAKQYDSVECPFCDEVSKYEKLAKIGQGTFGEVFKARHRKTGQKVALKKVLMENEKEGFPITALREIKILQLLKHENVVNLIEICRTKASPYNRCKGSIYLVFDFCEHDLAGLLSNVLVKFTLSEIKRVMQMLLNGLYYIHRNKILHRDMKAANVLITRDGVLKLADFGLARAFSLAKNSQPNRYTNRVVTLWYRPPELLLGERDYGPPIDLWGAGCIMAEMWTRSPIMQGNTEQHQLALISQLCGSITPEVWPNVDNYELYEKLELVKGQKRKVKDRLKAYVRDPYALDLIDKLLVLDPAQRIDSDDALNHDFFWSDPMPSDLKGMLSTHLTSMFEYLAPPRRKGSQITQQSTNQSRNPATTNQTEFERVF
Sequence of CDK9-Cyclin T1 (O60563 whole entry partner): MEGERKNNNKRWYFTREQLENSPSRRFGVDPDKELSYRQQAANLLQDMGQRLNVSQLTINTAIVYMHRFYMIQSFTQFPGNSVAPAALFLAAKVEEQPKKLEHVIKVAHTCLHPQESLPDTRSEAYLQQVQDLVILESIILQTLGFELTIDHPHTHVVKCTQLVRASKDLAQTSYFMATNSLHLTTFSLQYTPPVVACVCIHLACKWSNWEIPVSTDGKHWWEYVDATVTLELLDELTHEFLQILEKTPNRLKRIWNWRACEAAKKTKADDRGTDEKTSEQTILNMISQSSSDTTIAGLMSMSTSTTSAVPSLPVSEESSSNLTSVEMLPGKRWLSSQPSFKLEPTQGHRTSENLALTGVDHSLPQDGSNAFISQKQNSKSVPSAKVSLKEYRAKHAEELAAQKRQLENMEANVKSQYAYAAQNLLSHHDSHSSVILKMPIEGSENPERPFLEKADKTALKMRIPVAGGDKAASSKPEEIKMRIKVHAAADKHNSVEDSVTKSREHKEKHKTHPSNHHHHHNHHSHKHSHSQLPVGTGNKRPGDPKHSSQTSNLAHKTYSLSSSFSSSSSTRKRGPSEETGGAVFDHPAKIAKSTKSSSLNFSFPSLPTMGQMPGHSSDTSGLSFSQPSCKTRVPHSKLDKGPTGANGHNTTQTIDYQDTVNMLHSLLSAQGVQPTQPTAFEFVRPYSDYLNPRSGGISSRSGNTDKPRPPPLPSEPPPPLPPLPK

Row | SMILES | residual kinase activity, MPSK1 [1] | residual kinase activity, PAK6 [2] | residual kinase activity, TAO1 [3] | residual kinase activity, CDK2-Cyclin A [4] | residual kinase activity, TTBK2 [5] | residual kinase activity, WNK1 [6] | residual kinase activity, DDR2 [7] | residual kinase activity, CDK9-Cyclin T1 [8] | residual kinase activity, TESK1 [9] | residual kinase activity, CHK1 [10] | remaining activity at 100 µM [1] [%] | remaining activity at 100 µM [2] [%] | remaining activity at 100 µM [3] [%] | remaining activity at 100 µM [4] [%] | remaining activity at 100 µM [5] [%] | remaining activity at 100 µM [6] [%] | remaining activity at 100 µM [7] [%] | remaining activity at 100 µM [8] [%] | remaining activity at 100 µM [9] [%] | remaining activity at 100 µM [10] [%]
1 | CC(=O)Nc1nc2ccccc2s1 [Compound 03-32] | 86 | 92 | 73 | 76 | 85 | 98 | 97 | 45 | 95 | 105 |  |  |  |  |  |  |  |  |  | 
2 | O=C(Nc1nc2cc(O)ccc2s1)c1cccnc1 [Compound 03-33] | 101 | 119 | 87 | 92 | 102 | 103 | 109 | 97 | 102 | 106 |  |  |  |  |  |  |  |  |  | 
3 | O=C(Nc1nc2ccc(O)cc2s1)c1ccccc1 [Compound 03-60] | 106 | 104 | 62 | 78 | 44 | 108 | 112 | 76 | 65 | 72 |  |  |  |  |  |  |  |  |  | 
4 | CC(=O)Nc1nc2cc(C(F)(F)F)ccc2s1 [Compound 03-73] |  |  |  |  |  |  |  |  |  |  | 97 | 11 | 88 | 96 | 91 | 128 | 111 | 97 | 115 | 110
5 | CC(=O)Nc1nc2cc(C)ccc2s1 [Compound 03-76] | 91 | 108 | 76 | 72 | 97 | 104 | 110 | 49 | 106 | 102 |  |  |  |  |  |  |  |  |  | 
6 | CC(=O)Nc1nc2cc(F)ccc2s1 [Compound 03-77] |  |  |  |  |  |  |  |  |  |  | 86 | 106 | 69 | 66 | 93 | 99 | 101 | 46 | 106 | 103
7 | O=C(Nc1nc2ccc(O)cc2s1)c1ccncc1 [Compound 08-42] | 77 | 93 | 81 | 72 | 74 | 89 | 89 | 66 | 73 | 70 |  |  |  |  |  |  |  |  |  | 
8 | O=C(Nc1nc2ccc(O)cc2s1)c1cccnc1 [Compound 08-44] | 81 | 94 | 68 | 72 | 51 | 99 | 93 | 43 | 70 | 78 |  |  |  |  |  |  |  |  |  | 
